Experimental data taken from ChEMBL document CHEMBL2163207, “Predicting new indications for approved drugs using a proteochemometric method” (J Med Chem, 2012).

How the values were obtained:
Plasma [1] = test: Plasma concentration in human; format: ADME, cell-free
MDA-MB-231 = test: Cytotoxicity against human MDA-MB-231 cells after 48 hrs by MTS assay; format: functional, cell-based; conditions: MDA-MB-231, 48 h
[2] = molecular target: T1, Cadherin-11 (Mus musculus) (UniProt P55288); test: Binding affinity to mouse recombinant CDH11 extracellular domain 1-2 by surface plasmon resonance
T1 sequence (whole entry): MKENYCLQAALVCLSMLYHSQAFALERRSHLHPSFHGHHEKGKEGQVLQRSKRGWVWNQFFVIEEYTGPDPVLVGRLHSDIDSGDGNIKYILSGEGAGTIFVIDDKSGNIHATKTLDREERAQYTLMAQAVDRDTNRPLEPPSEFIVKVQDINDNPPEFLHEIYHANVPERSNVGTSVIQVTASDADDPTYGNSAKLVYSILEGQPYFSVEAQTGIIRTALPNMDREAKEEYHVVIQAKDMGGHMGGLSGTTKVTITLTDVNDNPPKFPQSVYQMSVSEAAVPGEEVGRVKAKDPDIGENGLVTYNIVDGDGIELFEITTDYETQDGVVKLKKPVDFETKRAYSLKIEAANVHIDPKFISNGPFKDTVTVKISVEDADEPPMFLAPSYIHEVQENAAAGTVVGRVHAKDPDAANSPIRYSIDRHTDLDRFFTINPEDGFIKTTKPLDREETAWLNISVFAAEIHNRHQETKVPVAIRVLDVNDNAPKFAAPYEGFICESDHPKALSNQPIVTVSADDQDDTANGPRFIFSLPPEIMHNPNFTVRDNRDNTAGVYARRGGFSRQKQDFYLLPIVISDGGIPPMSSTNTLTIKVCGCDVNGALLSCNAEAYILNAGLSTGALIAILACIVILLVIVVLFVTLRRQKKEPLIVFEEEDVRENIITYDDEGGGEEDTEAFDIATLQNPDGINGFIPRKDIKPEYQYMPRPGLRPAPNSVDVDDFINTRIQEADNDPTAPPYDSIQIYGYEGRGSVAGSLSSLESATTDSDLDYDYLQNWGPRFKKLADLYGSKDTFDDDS

Plasma [3] = test: Plasma concentration in rat; format: ADME, cell-free

| concentration (Plasma [1]) [nM] | Activity [2] | concentration (Plasma [3]) [nM] | Compound | IC50 (MDA-MB-231) [µM] |
| --- | --- | --- | --- | --- |
| 1000 | Dose-dependent effect | 1000 | Cc1ccc(-c2cc(C(F)(F)F)nn2-c2ccc(S(N)(=O)=O)cc2)cc1 [CELECOXIB] | 40 |
|  | Dose-dependent effect |  | Cc1ccc(C)c(-c2cc(C(F)(F)F)nn2-c2ccc(S(N)(=O)=O)cc2)c1 [DIMETHYL CELECOXIB] | 36 |
